Laboratory results as given in the supplement of paper PMC10307832.

Key:
Experiment in all cases: relative viability (nuclei count vs DMSO), 5 days (fraction); higher = more cells survive
NCI-H522 = tested on: NCI-H522
How it was run: (§1)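 Relative viability equals treated-well nuclei counts divided by vehicle-well nuclei counts. Counts came from 4× images of lung cancer cell lines grown in 1536-well plates for 5 days after pin-tool dosing on the day after seeding. Dosing used one drug alone or a fixed anchor-drug dose plus five library-drug doses (not always all listed) in √10 steps, and values are medians of duplicate plates.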

NCI-H2170 = tested on: NCI-H2170
How it was run: as §1

LK-2 = tested on: LK-2
How it was run: as §1

LXF-289 = tested on: LXF-289
How it was run: as §1

UMC-11 = tested on: UMC-11
How it was run: as §1

NCI-H441 = tested on: NCI-H441
How it was run: as §1

NCI-H3122 = tested on: NCI-H3122
How it was run: as §1

PC-3 [JPC-3] = tested on: PC-3 [JPC-3]
How it was run: as §1

NCI-H1993 = tested on: NCI-H1993
How it was run: as §1

LCLC-97TM1 = tested on: LCLC-97TM1
How it was run: as §1

EKVX = tested on: EKVX
How it was run: as §1

NCI-H2228 = tested on: NCI-H2228
How it was run: as §1

NCI-H2405 = tested on: NCI-H2405
How it was run: as §1

HOP-62 = tested on: HOP-62
How it was run: as §1

SK-LU-1 = tested on: SK-LU-1
How it was run: as §1

LU99A = tested on: LU99A
How it was run: as §1

ChaGo-K-1 = tested on: ChaGo-K-1
How it was run: as §1

H3255 = tested on: H3255
How it was run: as §1

NCI-H1355 = tested on: NCI-H1355
How it was run: as §1

SW 1573 = tested on: SW 1573
How it was run: as §1

NCI-H1650 = tested on: NCI-H1650
How it was run: as §1

HCC-827 = tested on: HCC-827
How it was run: as §1

EPLC-272H = tested on: EPLC-272H
How it was run: as §1

CN1CCN(CCOc2cc(OC3CCOCC3)c3c(Nc4c(Cl)ccc5c4OCO5)ncnc3c2)CC1 [Saracatinib] + O=C(CCCCCCC(=O)Nc1ccccc1)NO [Vorinostat] (partner 1 µM)
relative viability (NCI-H522; first compound 0.02 µM): 0.856
relative viability (NCI-H522; first compound 0.2 µM): 0.658
relative viability (NCI-H522; first compound 0.6325 µM): 0.897
relative viability (NCI-H522; first compound 2 µM): 0.778
relative viability (NCI-H2170; first compound 0.02 µM): 0.746
relative viability (NCI-H2170; first compound 0.2 µM): 0.678
relative viability (NCI-H2170; first compound 0.6325 µM): 0.93
relative viability (NCI-H2170; first compound 2 µM): 0.571
relative viability (LK-2; first compound 0.02 µM): 0.353
relative viability (LK-2; first compound 0.2 µM): 0.317
relative viability (LK-2; first compound 0.6325 µM): 0.224
relative viability (LK-2; first compound 2 µM): 0.234
relative viability (LXF-289; first compound 0.02 µM): 0.78
relative viability (LXF-289; first compound 0.2 µM): 0.573
relative viability (LXF-289; first compound 0.6325 µM): 0.773
relative viability (LXF-289; first compound 2 µM): 0.715
relative viability (UMC-11; first compound 0.02 µM): 0.376
relative viability (UMC-11; first compound 0.2 µM): 0.363
relative viability (UMC-11; first compound 0.6325 µM): 0.388
relative viability (UMC-11; first compound 2 µM): 0.253
relative viability (NCI-H441; first compound 0.02 µM): 0.84
relative viability (NCI-H441; first compound 0.2 µM): 0.731
relative viability (NCI-H441; first compound 0.6325 µM): 0.913
relative viability (NCI-H441; first compound 2 µM): 0.94
relative viability (NCI-H3122; first compound 0.02 µM): 0.984
relative viability (NCI-H3122; first compound 0.2 µM): 0.553
relative viability (NCI-H3122; first compound 0.6325 µM): 0.891
relative viability (NCI-H3122; first compound 2 µM): 0.788
relative viability (PC-3 [JPC-3]; first compound 0.02 µM): 0.819
relative viability (PC-3 [JPC-3]; first compound 0.2 µM): 0.47
relative viability (PC-3 [JPC-3]; first compound 0.6325 µM): 0.529
relative viability (PC-3 [JPC-3]; first compound 2 µM): 0.477
relative viability (NCI-H1993; first compound 0.02 µM): 0.806
relative viability (NCI-H1993; first compound 0.2 µM): 0.651
relative viability (NCI-H1993; first compound 0.6325 µM): 0.874
relative viability (NCI-H1993; first compound 2 µM): 0.533
relative viability (LCLC-97TM1; first compound 0.02 µM): 0.775
relative viability (LCLC-97TM1; first compound 0.2 µM): 0.411
relative viability (LCLC-97TM1; first compound 0.6325 µM): 0.839
relative viability (LCLC-97TM1; first compound 2 µM): 0.554
relative viability (EKVX; first compound 0.02 µM): 0.762
relative viability (EKVX; first compound 0.2 µM): 0.474
relative viability (EKVX; first compound 0.6325 µM): 0.817
relative viability (EKVX; first compound 2 µM): 0.494
relative viability (NCI-H2228; first compound 0.02 µM): 0.8
relative viability (NCI-H2228; first compound 0.2 µM): 0.6
relative viability (NCI-H2228; first compound 0.6325 µM): 0.611
relative viability (NCI-H2228; first compound 2 µM): 0.633
relative viability (NCI-H2405; first compound 0.02 µM): 0.89
relative viability (NCI-H2405; first compound 0.2 µM): 0.788
relative viability (NCI-H2405; first compound 0.6325 µM): 0.847
relative viability (NCI-H2405; first compound 2 µM): 0.441
relative viability (HOP-62; first compound 0.02 µM): 0.624
relative viability (HOP-62; first compound 0.2 µM): 0.611
relative viability (HOP-62; first compound 0.6325 µM): 0.769
relative viability (HOP-62; first compound 2 µM): 0.618
relative viability (SK-LU-1; first compound 0.02 µM): 0.758
relative viability (SK-LU-1; first compound 0.2 µM): 0.657
relative viability (SK-LU-1; first compound 0.6325 µM): 0.657
relative viability (SK-LU-1; first compound 2 µM): 0.509
relative viability (LU99A; first compound 0.02 µM): 0.445
relative viability (LU99A; first compound 0.2 µM): 0.339
relative viability (LU99A; first compound 0.6325 µM): 0.418
relative viability (LU99A; first compound 2 µM): 0.404
relative viability (ChaGo-K-1; first compound 0.02 µM): 0.797
relative viability (ChaGo-K-1; first compound 0.2 µM): 0.55
relative viability (ChaGo-K-1; first compound 0.6325 µM): 0.785
relative viability (ChaGo-K-1; first compound 2 µM): 0.65
relative viability (H3255; first compound 0.02 µM): 0.79
relative viability (H3255; first compound 0.2 µM): 0.684
relative viability (H3255; first compound 0.6325 µM): 0.965
relative viability (H3255; first compound 2 µM): 0.337
relative viability (NCI-H1355; first compound 0.02 µM): 0.668
relative viability (NCI-H1355; first compound 0.2 µM): 0.62
relative viability (NCI-H1355; first compound 0.6325 µM): 0.7
relative viability (NCI-H1355; first compound 2 µM): 0.587
relative viability (SW 1573; first compound 0.02 µM): 0.699
relative viability (SW 1573; first compound 0.2 µM): 0.702
relative viability (SW 1573; first compound 0.6325 µM): 0.664
relative viability (SW 1573; first compound 2 µM): 0.47
relative viability (NCI-H1650; first compound 0.02 µM): 0.654
relative viability (NCI-H1650; first compound 0.2 µM): 0.377
relative viability (NCI-H1650; first compound 0.6325 µM): 0.548
relative viability (NCI-H1650; first compound 2 µM): 0.492
relative viability (HCC-827; first compound 0.02 µM): 0.926
relative viability (HCC-827; first compound 0.2 µM): 0.643
relative viability (HCC-827; first compound 0.6325 µM): 0.354
relative viability (HCC-827; first compound 2 µM): 0.15
relative viability (EPLC-272H; first compound 0.02 µM): 0.306
relative viability (EPLC-272H; first compound 0.2 µM): 0.562
relative viability (EPLC-272H; first compound 0.6325 µM): 0.63
relative viability (EPLC-272H; first compound 2 µM): 0.424
